Patent US11453666B2, “Autotaxin inhibitory compounds” (Cancer Research Technology Limited, priority 2015, dated 2022)
Where two headings read alike, the source gives them in different places.

Target: human recombinant ATX (Homo sapiens, UniProt Q13822)
Test: Autotaxin (ATX) activity Quanta Red assay
Assay type: biochemical
In short: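 Recombinant human ATX reaction stopped after 2 h with Quanta Red stop solution; fluorescence read at […]. Controls with DMSO, with and without ATX; IC50 in duplicate.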

[1] = read-out: Activity (ATX activity, Quanta Red assay; IC50)

SMILES | IC50 [1] | further results
COc1ccc(Cn2c(CCC(=O)NCc3ccc4c(ccn4C)c3)nc3cccnc32)cc1 [Example 105, 3-[3-(4-Methoxy-benzyl)-3H-imidazo[4,5-b]pyridin-2-yl]-N-(1-methyl-1H-indol-5-ylmethyl)-propionamide] | 88 nM | –
Cc1ccc([C@H](C)NC(=O)CCc2nc3cccnc3n2Cc2ccc(F)c(F)c2)cc1 [Example 85, 3-[3-(3,4-Difluoro-benzyl)-3H-imidazo[4,5-b]pyridin-2-yl]-N-((S)-1-p-tolyl-ethyl)-propionamide] | 4 nM | –
O=C(CCc1nc2cccnc2n1Cc1ccc(OC(F)(F)F)cc1)NCC1CCN(C(=O)C2CC2)CC1 [Example 215, N-(1-Cyclopropanecarbonyl-piperidin-4-ylmethyl)-3-[3-(4-trifluoromethoxy-benzyl)-3H-imidazo[4,5-b]pyridin-2-yl]-propionamide] | 81 nM | –
CC(NC(=O)CCc1nc2cccnc2n1Cc1ccc(OC(F)(F)F)cc1)C1CCOCC1 (stereo not shown) [Example 56, N-[1-(Tetrahydro-pyran-4-yl)-ethyl]-3-[3-(4-trifluoromethoxy-benzyl)-3H-imidazo[4,5-b]pyridin-2-yl]-propionamide] | 45 nM | –
COc1ccc(CNC(=O)CCc2nc3cccnc3n2Cc2ccc(OC(F)(F)F)cc2)cc1 [Example 14, N-(4-Methoxy-benzyl)-3-[3-(4-trifluoromethoxy-benzyl)-3H-imidazo[4,5-b]pyridin-2-yl]-propionamide] | 2 nM | –
O=C(CCc1nc2cccnc2n1Cc1ccc(F)c(F)c1)NC[C@H](O)c1ccccc1 [Example 67, 3-[3-(3,4-Difluoro-benzyl)-3H-imidazo[4,5-b]pyridin-2-yl]-N-((R)-2-hydroxy-2-phenyl-ethyl)-propionamide] | 169 nM | –
COc1ccc(Cn2c(CCC(=O)N[C@@H](C)c3ccc(F)cc3)nc3cccnc32)cc1 [Example 96, N-[(S)-1-(4-Fluoro-phenyl)-ethyl]-3-[3-(4-methoxy-benzyl)-3H-imidazo[4,5-b]pyridin-2-yl]-propionamide] | 22 nM | –
O=C(CCc1nc2cccnc2n1Cc1ccc(OC(F)(F)F)cc1)N[C@@H]1c2ccccc2C[C@@H]1O [Example 8, N-((1R,2S)-2-Hydroxy-indan-1-yl)-3-[3-(4-trifluoromethoxy-benzyl)-3H-imidazo[4,5-b]pyridin-2-yl]-propionamide] | 1 nM | –
O=C(CCc1nc2cccnc2n1Cc1cccs1)N[C@H](Cc1ccccc1)C(=O)O [Example 202, (R)-3-Phenyl-2-[3-(3-thiophen-2-ylmethyl-3H-imidazo[4,5-b]pyridin-2-yl)-propionylamino]-propionic acid] | 819 nM | –
O=C(CCc1nc2cccnc2n1Cc1ccc(OC(F)(F)F)cc1)N[C@@H](CO)c1ccccc1 [Example 7, N-((R)-2-Hydroxy-1-phenyl-ethyl)-3-[3-(4-trifluoromethoxy-benzyl)-3H-imidazo[4,5-b]pyridin-2-yl]-propionamide] | 1 nM | –
Cc1cnc(NC(=O)CCc2nc3cccnc3n2Cc2ccc(OC(F)(F)F)cc2)s1 [Example 81, N-(5-Methyl-thiazol-2-yl)-3-[3-(4-trifluoromethoxy-benzyl)-3H-imidazo[4,5-b]pyridin-2-yl]-propionamide] | 1480 nM | –
C[C@H](NC(=O)CCc1nc2cccnc2n1Cc1ccc(F)c(F)c1)c1ccc(CN2CCOCC2)cc1 [Example 206, 3-[3-(3,4-difluoro-benzyl)-3H-imidazo[4,5-b]pyridin-2-yl]-N—[(S)-1-(4-morpholin-4-ylmethyl-phenyl)-ethyl]-propionamide] | 3 nM | –
C[C@H](NC(=O)COc1nc2cccnc2n1Cc1ccc(OC(F)(F)F)cc1)c1ccc(Cl)cc1 [Example 152, N—[(S)-1-(4-chloro-phenyl)-ethyl]-2-[3-(4-trifluoromethoxy-benzyl)-3H-imidazo[4,5-b]pyridin-2-yloxy]-acetamide] | – | IC50 (human recombinant ATX 0.8 μg/mL, 2 hours at room temperature, IC50 determined in duplicate, read-out: Activity (ATX activity, Quanta Red assay; IC50)): 5 nM
COc1ccc(CNC(=O)CCc2nc3cc(F)cnc3n2Cc2ccccc2OC)cc1 [Example 101, 3-[6-Fluoro-3-(2-methoxy-benzyl)-3H-imidazo[4,5-b]pyridin-2-yl]-N-(4-methoxy-benzyl)-propionamide] | 55 nM | –
O=C(CCc1nc2cccnc2n1Cc1ccc(OC(F)(F)F)cc1)Nc1nccs1 [Example 69, N-Thiazol-2-yl-3-[3-(4-trifluoromethoxy-benzyl)-3H-imidazo[4,5-b]pyridin-2-yl]-propionamide] | 214 nM | –
C[C@H](NC(=O)CSc1nc2cccnc2n1Cc1ccc(F)cc1)c1ccc(F)cc1 [Example 146, 2-[3-(4-Fluoro-benzyl)-3H-imidazo[4,5-b]pyridin-2-ylsulfanyl]-N-[(S)-1-(4-fluoro-phenyl)-ethyl]-acetamide] | 3 nM | –
C[C@H](NC(=O)NCc1nc2cccnc2n1Cc1ccc(F)cc1)c1ccccc1 [Example 161, 1-[3-(4-fluoro-benzyl)-3H-imidazo[4,5-b]pyridin-2-ylmethyl]-3-((S)-1-phenyl-ethyl)-urea] | 115 nM | –

SMILES | IC50 [1] | further results
COc1ccc(CNC(=O)CCc2nc3cccnc3n2Cc2cccc(F)c2)cc1 [Example 110, 3-[3-(3-Fluoro-benzyl)-3H-imidazo[4,5-b]pyridin-2-yl]-N-(4-methoxy-benzyl)-propionamide] | 262 nM | –
O=C(CCc1nc2cccnc2n1Cc1ccc(OC(F)(F)F)cc1)NCC1CCOCC1 [Example 62, N-(Tetrahydro-pyran-4-ylmethyl)-3-[3-(4-trifluoromethoxy-benzyl)-3H-imidazo[4,5-b]pyridin-2-yl]-propionamide] | 125 nM | –
O=C(CCc1nc2cccnc2n1Cc1ccc(OC(F)(F)F)cc1)N[C@H](CO)Cc1ccccc1 [Example 204, N-((S)-1-Hydroxymethyl-2-phenyl-ethyl)-3-[3-(4-trifluoromethoxy-benzyl)-3H-imidazo[4,5-b]pyridin-2-yl]-propionamide] | 89 nM | –
COc1ccc(CNC(=O)CCc2nc3cc(C)cnc3n2Cc2ccc(OC(F)(F)F)cc2)cc1F [Example 52, N-(3-Fluoro-4-methoxy-benzyl)-3-[6-methyl-3-(4-trifluoromethoxy-benzyl)-3H-imidazo[4,5-b]pyridin-2-yl]-propionamide] | 29 nM | –
C[C@H](NC(=O)CCc1nc2cccnc2n1Cc1ccc(F)cc1)c1ccc(N2CCOCC2)cc1 [Example 185, 3-[3-(4-Fluoro-benzyl)-3H-imidazo[4,5-b]pyridin-2-yl]-N-[(S)-1-(4-morpholin-4-yl-phenyl)-ethyl]-propionamide] | 13 nM | –
C[C@H](NC(=O)CCc1nc2cccnc2n1Cc1ccc(F)c(F)c1)c1ccc(Br)cc1 [Example 17, N-[(S)-1-(4-Bromo-phenyl)-ethyl]-3-[3-(3,4-difluoro-benzyl)-3H-imidazo[4,5-b]pyridin-2-yl]-propionamide] | 3 nM | –
CC(=O)N1CCC(CNC(=O)CCc2nc3cccnc3n2Cc2ccc(OC(F)(F)F)cc2)CC1 [Example 216, N-(1-Acetyl-piperidin-4-ylmethyl)-3-[3-(4-trifluoromethoxy-benzyl)-3H-imidazo[4,5-b]pyridin-2-yl]-propionamide] | 495 nM | –
O=C(CCc1nc2cccnc2n1Cc1ccc(F)cc1)NCc1ccc(F)cc1 [Example 94, N-(4-Fluoro-benzyl)-3-[3-(4-fluoro-benzyl)-3H-imidazo[4,5-b]pyridin-2-yl]-propionamide] | 25 nM | –
O=C(CCc1nc2cccnc2n1Cc1ccc(F)c(F)c1)NC(CO)c1ccc(Cl)cc1 (stereo not shown) [Example 35, N-[1-(4-Chloro-phenyl)-2-hydroxy-ethyl]-3-[3-(3,4-difluoro-benzyl)-3H-imidazo[4,5-b]pyridin-2-yl]-propionamide] | 7 nM | –
C[C@H](NC(=O)CCc1nc2cccnc2n1Cc1ccc(OC(F)(F)F)cc1)c1ccccn1 [Example 29, N-((S)-1-Pyridin-2-yl-ethyl)-3-[3-(4-trifluoromethoxy-benzyl)-3H-imidazo[4,5-b]pyridin-2-yl]-propionamide] | 5 nM | –
COc1ccc(CNC(=O)CCc2nc3cccnc3n2Cc2cccc(C)c2)cc1 [Example 118, N-(4-Methoxy-benzyl)-3-[3-(3-methyl-benzyl)-3H-imidazo[4,5-b]pyridin-2-yl]-propionamide] | 726 nM | –
CN(C)CCCOc1ccc(CNC(=O)CCc2nc3ccncc3n2Cc2ccc(OC(F)(F)F)cc2)cc1 [Example 128, N-[4-(3-Dimethylamino-propoxy)-benzyl]-3-[3-(4-trifluoromethoxy-benzyl)-3H-imidazo[4,5-c]pyridin-2-yl]-propionamide] | 17 nM | –
C[C@@H]1CN(c2ccc([C@H](C)NC(=O)CCc3nc4cccnc4n3Cc3ccc(F)c(F)c3)cc2)CCN1 [Example 188, 3-[3-(3,4-Difluoro-benzyl)-3H-imidazo[4,5-b]pyridin-2-yl]-N-{(S)-1-[4-((R)-3-methyl-piperazin-1-yl)-phenyl]-ethyl}-propionamide] | 15 nM | –
Cc1ccc2nc(CCC(=O)N[C@@H](C)c3ccc(Cl)cc3)n(Cc3ccc(F)cc3)c2n1 [Example 79, N-[(S)-1-(4-Chloro-phenyl)-ethyl]-3-[3-(4-fluoro-benzyl)-5-methyl-3H-imidazo[4,5-b]pyridin-2-yl]-propionamide] | 94 nM | –
O=C(CCc1nc2cccnc2n1Cc1ccccc1)NCc1ccc(F)cc1 [Example 223, 3-(3-Benzyl-3H-imidazo[4,5-b]pyridin-2-yl)-N-(4-fluoro-benzyl)-propionamide] | – | IC50 (Table 2: additional compounds tested for ATX activity (Quanta Red Assay), read-out: Activity): 324 nM
COc1ccc([C@H](C)NC(=O)CCc2nc3cc(C)cnc3n2Cc2ccc(OC(F)(F)F)cc2)cc1 [Example 212, N-[(S)-1-(4-Methoxy-phenyl)-ethyl]-3-[6-methyl-3-(4-trifluoromethoxy-benzyl)-3H-imidazo[4,5-b]pyridin-2-yl]-propionamide] | 7 nM | –
CCC[C@H](NC(=O)CCc1nc2ccncc2n1Cc1ccc(F)cc1)c1ccccc1 [Example 134, 3-[3-(4-Fluoro-benzyl)-3H-imidazo[4,5-c]pyridin-2-yl]-N-((S)-1-phenyl-butyl)-propionamide] | 133 nM | –
